Laboratory results published in publication PMC6981581, “N-(2-Arylmethylthio-4-Chloro-5-Methylbenzenesulfonyl)amide Derivatives as Potential Antimicrobial Agents—Synthesis and Biological Studies” (International Journal of Molecular Sciences, 2019).
≈ marks a conversion by molar mass, not a printed value. Like-named read-outs stand apart in the source and are kept apart here.

Columns and labels:
[1] = test system: Candida albicans ATCC 10231; assay: Broth dilution MIC/MFC, reference fungal strain; type: cell-based
Protocol: The tests were carried out using a serial dilution method, allowing the determination of MIC (minimal concentration inhibiting bacterial growth), MBC (minimal bactericidal concentration), and MFC (minimal fungicidal concentration) values.
Antimicrobial activity was tested using the following reference strains: Staphylococcus aureus ATCC 6538 (MSSA), Staphylococcus aureus ATCC 43300 (MRSA), Staphylococcus epidermidis PCM 2118, Escherichia coli ATCC 11229, Pseudomonas aeruginosa ATCC 15442, Proteus vulgaris NCTC 4635, Enterococcus faecalis ATCC 11420, and Candida albicans ATCC 10231.
(§1) A broth dilution method was used to determine minimal inhibitory concentration (MIC) for tested compounds as recommended by Clinical Laboratory Standards Institute (CLSI) guidelines. Investigated compounds were diluted in Mueller Hinton Broth 2 (Sigma-Aldrich Co., St. Louis, MO, USA) in polypropylene 96-well plates and initial inoculum 5 × 10^5 cfu/mL were incubated at 37 °C for 18 h. MIC was taken as the lowest drug concentration at which an observable growth was inhibited. […] The loopful (10 µL) of the tested sample was transferred to Tryptic Soy Agar (TSA, Becton-Dickinson, Franklin Lakes, NJ, USA) and incubated at 37 °C for 48 h. […] Drug Solutions were made fresh on the day of the assay. All experiments were performed in triplicate.

S.aureus 55 (MSSA) = assay: Broth dilution MIC/MBC, clinical MSSA isolate; type: cell-based; conditions: Staphylococcus aureus, clinical MSSA S.aureus 55
Text: (§2) […]. Both MRSA and MSSA strains were derived from various human infections.
(§3) […]. Five methicillin-resistant S. aureus strains were isolated from nose (n = 1), bronchoalveolar lavage (n = 1), sputum (n = 1), wound (n = 1), and blood (n = 1); five methicillin-susceptible S. aureus strains were isolated from throat (n = 1), bronchoalveolar lavage (n = 1), sputum (n = 1), abscess (n = 1), and blood (n = 1).
(§4) The identity of S. aureus isolates was confirmed with conventional methods and with Pastorex Staph-Plus latex agglutination kit (Bio-Rad, Marnes-la-Coquette, France) and verified applying the polymerase chain reaction (PCR) of S. aureus-specific region of the thermonuclease gene, nuc. Resistance to methicillin was first verified using cefoxitin disk (30 µg), and then, identified based on the presence of mecA gene. S. aureus ATCC®25923 (methicillin-susceptible) and S. aureus ATCC®43300 (MDR) were applied as the reference strains. Both the reference and clinical strains were stored at −80 °C, in Tryptic Soy Broth (TSB, Becton-Dickinson, Franklin Lakes, NJ, USA) supplemented with 15% glycerol.
as §1

S.aureus 57 (MSSA) = assay: Broth dilution MIC/MBC, clinical MSSA isolate; type: cell-based; conditions: Staphylococcus aureus, clinical MSSA S.aureus 57
Text: as §2, §3, §4, §1

S.aureus 58 (MSSA) = assay: Broth dilution MIC/MBC, clinical MSSA isolate; type: cell-based; conditions: Staphylococcus aureus, clinical MSSA S.aureus 58
Text: as §2, §3, §4, §1

MRSA 51 biofilm = assay: Biofilm inhibition assay (crystal violet); type: cell-based, Staphylococcus aureus; conditions: MRSA 51, 4 × MIC
Protocol: (§5) For many decades, S. aureus has been identified as the most common etiologic agent of device related infections, associated with biofilm formation. These infections are hard to cure because the specific structure of biofilm confers resistance to the host immune response and to the action of antibiotics.
(§6) Then, 100 µL bacterial suspension prepared from fresh overnight culture by diluting with TSB to obtain the initial inoculum 2 × 10^6 CFU/mL was added. The plates were incubated for 24 h at 37 °C. After the incubation, the wells were discarded and were gently rinsed three times with PBS to remove planktonic staphylococcal cells. Then, contents of the wells were discarded and the biofilm was fixed with 200 µL methanol for 20 min and dried at room temperature for 30 min. The biofilm was stained by adding 200 µL 1.8% crystal violet solution for 15 min. After staining, the plates were rinsed with water and 200 µL bleaching solution (30% ethanol, 30% glacial acetic acid, 40% water) added for 15 min to dissolve the remaining crystal violet. A microplater reader was used to measure the absorbance of the adherent biofilm at 570 nm (OD570). […] The negative control included only the growth medium.

MRSA 52 biofilm = assay: Biofilm inhibition assay (crystal violet); type: cell-based, Staphylococcus aureus; conditions: MRSA 52, 4 × MIC
Protocol: as §5, §6

MSSA 58 biofilm = assay: Biofilm inhibition assay (crystal violet); type: cell-based, Staphylococcus aureus
Protocol: as §5, §6

MSSA 59 biofilm = assay: Biofilm inhibition assay (crystal violet); type: cell-based, Staphylococcus aureus; conditions: MSSA 59, 4 × MIC
Protocol: as §5, §6

HCT-116 (colon cancer) = assay: MTT cell viability assay; type: cell-based; conditions: Homo sapiens, 72 h incubation, mean ± SD
Protocol: (§7) Analysis was performed using the MTT test and 72 h of incubation.
(§8) All chemicals were obtained from Sigma-Aldrich (St. Louis, MO, USA). The MCF-7 and HeLa cell lines were purchased from Cell Lines Services (Eppelheim, Germany), the HCT-116 cell line was purchased from ATCC (ATCC-No: CCL-247). Cells were cultured in Dulbecco’s modified Eagle’s medium (DMEM) supplemented with 10% fetal bovine serum, 2 mM glutamine, 100 units/mL penicillin, and 100 μg/mL streptomycin. Cultures were held in an incubator (Heraceus, HeraCell) in a humidified atmosphere with 5% CO2 at 37 °C.
(§9) Cell viability was evaluated using the MTT (3-(4,5-dimethylthiazol-2-yl)-2,5-diphenyltetrazolium bromide) assay. Stock solutions of the studied compounds were obtained in 100% DMSO. […] Cells at a density of 5 × 10^3 cells/well, seeded in 96-well plates, were treated for 72 h with the tested compounds in the concentration range 1–100 μM (1, 10, 25, 50 and 100 μM). After treatment, cells were incubated for 2 h with MTT (0.5 mg/mL) at 37 °C. Cells were lysed with DMSO and the absorbance of the formazan solution was measured at 550 nm with a plate reader (1420 multilabel counter, Victor, Jügesheim, Germany). Values are expressed as the mean ± SD of at least three independent experiments conducted in triplicate.

HeLa (cervical cancer) = assay: MTT cell viability assay; type: cell-based; conditions: Homo sapiens, 72 h incubation, mean ± SD
Protocol: as §7, §8, §9

MCF-7 (breast cancer) = assay: MTT cell viability assay; type: cell-based; conditions: Homo sapiens, MCF7, 72 h incubation, mean ± SD
Protocol: as §7, §8, §9

[2] = test system: clinical isolates of methicillin-resistant S. aureus (50–54) and methicillin-sensitive S. aureus (55–59); assay: Broth dilution MIC/MBC, summary over clinical S. aureus isolates; type: cell-based, Staphylococcus aureus
Text: as §2, §3, §4, §1

MFC/MIC ([1]; C. a. ATCC 10231): 2
MIC ([1]; Candida albicans, ATCC10231, C. albicans ATCC 10231, read-out: MIC): 64 µg/mL (≈ 120 µM)
MIC (S.aureus 55 (MSSA); read-out: MIC): 4 µg/mL (≈ 7.49 µM)
MIC (S.aureus 57 (MSSA); read-out: MIC): 4 µg/mL (≈ 7.49 µM)
MIC (S.aureus 58 (MSSA); read-out: MIC): 4 µg/mL (≈ 7.49 µM)
IC50 (HCT-116 (colon cancer)): 78 ± 3 µM
IC50 (HeLa (cervical cancer)): 94 ± 3 µM
IC50 (MCF-7 (breast cancer)): 81 ± 3 µM
MIC ([2]; Staphylococcus aureus, reference MRSA and MSSA strains as well as clinical isolates, read-out: MIC): 4 to 8 µg/mL (≈ 7.49 to 15 µM)
MIC ([2]; Staphylococcus aureus, summary over ten clinical MRSA and MSSA isolates (Table 4), read-out: MIC): 4 µg/mL (≈ 7.49 µM)
MIC ([2]; summary over ten clinical MRSA and MSSA isolates (Table 4)): 4 to 8 µg/mL
Compound: Cc1cc(S(=O)(=O)NC(=O)CCC2CCCCC2)c(SCc2cccc(C(F)(F)F)c2)cc1Cl [Compound 10, N-[4-Chloro-5-methyl-2-(3-trifluoromethylbenzylthio)benzenesulfonyl]-3-cyclohexylpropanamide]
MFC ([1]; Candida albicans, ATCC10231, C. albicans ATCC 10231, read-out: MFC): 128 µg/mL (≈ 240 µM)
MBC (S.aureus 55 (MSSA); read-out: MBC): > 128 µg/mL
MBC (S.aureus 57 (MSSA); read-out: MBC): > 128 µg/mL
MBC (S.aureus 58 (MSSA); read-out: MBC): > 128 µg/mL
inhibition of biofilm formation (MRSA 51 biofilm): 88–89%
inhibition of biofilm formation (MRSA 52 biofilm): 88–89%
inhibition of biofilm formation (MSSA 58 biofilm; MSSA 58, concentration equal to the MIC): about 91%
inhibition of biofilm formation (MSSA 58 biofilm; MSSA 58, ½ MIC (2 μg/mL)): 67%
inhibition of biofilm formation (MSSA 59 biofilm): 91%
MBC ([2]; Staphylococcus aureus, summary over ten clinical MRSA and MSSA isolates (Table 4), read-out: MBC): > 128 µg/mL
